Reference: paper PMC10145360, “Antiplatelet Aggregation Properties of Cirsilineol: A Novel Inhibitor of Blood Coagulation Factor Xa” (Pharmaceuticals, 2023)

Key:
Protein Ca = molecular target: T1, Protein Ca (Homo sapiens, UniProt P04070); test: Inhibitory constant, chromogenic substrate assay; type: biochemical
T1 construct: purchased Haematologic Technologies (Essex Junction, VT, USA)
Experimental: (§1) Ki values were calculated based on chromogenic substrate experiments. CSL was employed in each assay at a minimum of seven concentrations in duplicate to obtain an inhibition curve. A total of 50 μL of substrate was combined with 25 μL of each chemical solution, inhibitor solution, or blank buffer. Before the plate was allocated into the Labsystems IEMS microtiter plate reader (Cergy Pontoise, France), 25 μL of the enzyme solution was mixed. The plate was allowed for 1 h at 37 °C before analysis. We continuously observed the formation of p-nitroaniline produced when the substrate was hydrolyzed using spectrophotometry at 405 nm. The maximum initial reaction rates were computed as the millioptical density per minute. A Dixon plot of 1/Vmax versus inhibitor concentration was used to fit the curve and determine the Ki values.

tPA = molecular target: T2, tPA (Homo sapiens, UniProt P00750); test: Inhibitory constant, chromogenic substrate assay; type: biochemical
T2 construct: purchased Haematologic Technologies (Essex Junction, VT, USA)
Experimental: as §1

Plasmin = molecular target: T3, Plasmin (Homo sapiens, UniProt P00747); test: Inhibitory constant, chromogenic substrate assay; type: biochemical
T3 construct: S-2251 for plasmin; purchased Haematologic Technologies (Essex Junction, VT, USA)
Experimental: as §1

α-Thrombin = molecular target: T4, α-Thrombin (Homo sapiens, UniProt P00734); test: Inhibitory constant, chromogenic substrate assay; type: biochemical
T4 construct: α-Thrombin; purchased Haematologic Technologies (Essex Junction, VT, USA)
Experimental: as §1

PRP = test: FXa-induced platelet aggregation; type: cell-based, human; details: FXa 52 µg/mL; PRP preincubated 5 min
Experimental: Figure 5 Effects of CSL on the catalytic activity and production of FXa. […] Plots show the average values of five independent measurements. (B) HUVECs pre-incubated with the indicated concentrations of CSL for 10 min were stimulated with TNF-α (10 ng/mL) for 6 h and incubated with FX (175 nM) and FVIIa (10 nM) with/without anti-tissue factor antibody (25 µg/mL). The production of FXa was characterized as described in the Methods section. (C) PRP was preincubated for 5 min with different concentrations of CSL, Riva, or the vehicle. Platelet aggregation was initiated with FXa (52 µg/mL), and the platelet aggregation was recorded using an aggregometer. Data are shown as mean values ± SD of five independent experiments. * p < 0.05 vs. TNF-α alone (B) or FXa (C). D = 0.2% DMSO, used as the vehicle control.
CSL dissolved in DMSO was incubated with human PRP for a specified time (1, 3, 5, or 10 min). Next, PRP was activated by the addition of collagen (1 μg/mL), ADP (10 μM), U46619 (6 μM), or thrombin (3 U/mL), and the amount of platelet aggregation was measured using an aggregometer (Chronolog, Havertown, PA, USA).

Trypsin = test: Inhibitory constant, chromogenic substrate assay; type: biochemical, human
Experimental: as §1

[1] = tested on: platelet-poor plasma (PPP); test: Ex vivo aPTT clotting time after intravenous injection; type: in vivo, mouse; details: mice
Experimental: First, the potential cytotoxicity of […] on HUVECs was assessed using the 3-(4,5-dimethylthiazol-2-yl)-2,5-diphenyltetrazolium bromide (MTT) assay. […] The activated partial thromboplastin time (aPTT) and prothrombin time (PT), two coagulation parameters altered by CSL in vitro, were assessed first. We used the direct FXa inhibitor rivaroxaban as a positive control for our experiments. […] In the aPTT experiments, rivaroxaban at 8.38 μM and CSL at 7.23 μM, respectively, doubled the clotting time. Each mouse group (n = 5) received intravenous injections of CSL for 4 consecutive days to validate the in vitro results in an ex vivo experiment. […] In the ex vivo aPTT assays, treatment with CSL at 0.25 mg/kg and rivaroxaban at 0.29 mg/kg, respectively, doubled the clotting time. The average blood volume was determined to be 2 mL based on an estimated circulating blood volume for mice of 72 mL/kg and an average weight of 27 g for each animal used in this investigation. As a result, the estimated concentration of CSL in the peripheral blood after each injection ([…]) was 2.5, 5, 10, or 20 μM, respectively.
Figure 2 Effects of CSL on clotting time. (A) Platelet-poor plasma (PPP) was incubated with the indicated concentrations of CSL or rivaroxaban (Riva) for 15 min. (B) One hour after administering DMSO, CSL, or Riva, blood was collected from the mice, and PPP was obtained. Then, in vitro aPTT (A) or ex vivo aPTT was measured, as described in the Methods sections. Data are shown as mean values ± SD of five independent experiments. * p < 0.05 vs. D. D = 0.2% DMSO, used as the vehicle control.
Male C57BL/6 mice aged 7 weeks (mean weight: 27 g) were purchased from Orient Bio Co., in Sungnam, Republic of Korea, and were subjected to a 12-day acclimatization phase. […]
Plasma was taken by centrifuging blood (2000× g for 10 min) at room temperature following dimethyl sulfoxide (DMSO) or CSL administration for 1 h to assess PT and aPTT using a thrombotimer (Behnk Elektronik, Norderstedt, Germany). […] Next, the clotting time was measured.

T3 sequence (P00747 581-810 limits assumed): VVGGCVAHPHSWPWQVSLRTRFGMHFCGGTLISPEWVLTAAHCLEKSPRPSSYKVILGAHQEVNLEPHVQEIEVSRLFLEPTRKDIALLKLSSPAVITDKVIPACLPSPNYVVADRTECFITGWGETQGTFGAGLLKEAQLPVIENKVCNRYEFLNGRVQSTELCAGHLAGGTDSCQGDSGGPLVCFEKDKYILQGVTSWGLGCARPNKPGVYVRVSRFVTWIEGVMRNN
T3 sequence (P00747 97-580 partner limits assumed): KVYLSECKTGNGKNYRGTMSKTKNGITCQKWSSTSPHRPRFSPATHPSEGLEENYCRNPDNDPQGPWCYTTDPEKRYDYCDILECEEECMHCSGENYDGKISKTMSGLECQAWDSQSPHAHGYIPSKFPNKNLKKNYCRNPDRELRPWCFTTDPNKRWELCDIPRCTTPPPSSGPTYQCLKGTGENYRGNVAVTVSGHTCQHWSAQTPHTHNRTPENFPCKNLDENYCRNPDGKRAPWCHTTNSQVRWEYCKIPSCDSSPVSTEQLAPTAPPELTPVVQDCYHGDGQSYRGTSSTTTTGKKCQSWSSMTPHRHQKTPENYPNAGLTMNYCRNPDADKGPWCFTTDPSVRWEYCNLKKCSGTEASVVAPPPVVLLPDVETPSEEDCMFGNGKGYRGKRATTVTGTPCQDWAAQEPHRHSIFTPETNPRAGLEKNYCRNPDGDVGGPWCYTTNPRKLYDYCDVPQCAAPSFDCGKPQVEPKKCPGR
T1 sequence (P04070 212-450 limits assumed): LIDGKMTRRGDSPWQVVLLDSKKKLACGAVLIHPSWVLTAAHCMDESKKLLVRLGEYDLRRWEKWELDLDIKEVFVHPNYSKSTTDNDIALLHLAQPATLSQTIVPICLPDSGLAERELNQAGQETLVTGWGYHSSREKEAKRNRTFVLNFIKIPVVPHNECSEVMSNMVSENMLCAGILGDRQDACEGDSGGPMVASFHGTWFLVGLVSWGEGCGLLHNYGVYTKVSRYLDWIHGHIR
T1 sequence (P04070 43-197 partner limits assumed): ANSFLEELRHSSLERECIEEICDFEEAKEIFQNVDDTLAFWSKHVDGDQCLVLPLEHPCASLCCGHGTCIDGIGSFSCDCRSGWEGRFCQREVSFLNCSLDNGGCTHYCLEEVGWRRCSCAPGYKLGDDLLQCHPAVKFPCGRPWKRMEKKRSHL
T2 sequence (P00750 36-562): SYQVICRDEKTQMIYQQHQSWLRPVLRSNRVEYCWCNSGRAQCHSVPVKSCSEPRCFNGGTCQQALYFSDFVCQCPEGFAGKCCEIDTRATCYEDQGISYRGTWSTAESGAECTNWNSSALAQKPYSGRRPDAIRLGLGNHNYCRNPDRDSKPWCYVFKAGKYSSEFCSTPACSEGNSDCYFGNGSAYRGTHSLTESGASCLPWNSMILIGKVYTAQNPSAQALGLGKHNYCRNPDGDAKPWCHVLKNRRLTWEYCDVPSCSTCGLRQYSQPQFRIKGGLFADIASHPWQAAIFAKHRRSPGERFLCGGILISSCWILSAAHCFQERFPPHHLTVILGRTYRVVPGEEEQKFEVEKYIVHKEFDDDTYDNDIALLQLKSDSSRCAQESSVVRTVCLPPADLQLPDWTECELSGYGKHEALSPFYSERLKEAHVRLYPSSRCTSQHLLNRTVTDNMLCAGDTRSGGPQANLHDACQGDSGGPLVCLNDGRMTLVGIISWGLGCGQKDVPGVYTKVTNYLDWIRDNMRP

Q: Which Ki (Protein Ca) does the source give for `COc1cc(-c2cc(=O)c3c(O)c(OC)c(OC)cc3o2)ccc1O` [CSL, 4,5-dihydroxy-3,6,7-trimethoxyflavone] here?
A: > 300 µM

Q: And the “Ratio = Ki enzyme/Ki Factor Xa” value (Protein Ca)?
A: >100

Q: What about the Ki (tPA) of the same compound?
A: > 300 µM

Q: And the “Ratio = Ki enzyme/Ki Factor Xa” value (tPA)?
A: >100

Q: What about the Ki (Plasmin) of the same compound?
A: > 300 µM

Q: What about the “Ratio = Ki enzyme/Ki Factor Xa” value (Plasmin) of the same compound?
A: >100

Q: And the Ki (α-Thrombin)?
A: > 300 µM

Q: What about the “Ratio = Ki enzyme/Ki Factor Xa” value (α-Thrombin) of the same compound?
A: >100

Q: And the “platelet aggregation brought on by FXa” value (PRP)?
A: dramatically reduced

Q: What about the Ki (Trypsin) of the same compound?
A: > 300 µM

Q: What about the “Ratio = Ki enzyme/Ki Factor Xa” value (Trypsin) of the same compound?
A: >100

Q: And the “dose that doubled the clotting time (ex vivo aPTT)” value ([1]; intravenous)?
A: 0.25 mg/kg

Q: What about the “blood clotting time ex vivo (aPTT)” value ([1]; intravenous injections for 4 consecutive days) of the same compound?
A: dramatically increased blood clotting time
